Laboratory results taken from patent US6365621B1, “Remedies or preventives for intractable epilepsy” (Pharmaceutical Co., Ltd., priority 1998, dated 2002).

Columns and labels:
male mouse = conditions: peroral; cited from earlier work
[1] = test system: kainate-induced amygdala seizures; experiment: Local cerebral glucose metabolism during kainate-induced amygdala seizures ([14C]deoxyglucose autoradiography); assay type: in vivo, rat; design: key to Effect on local cerebral glucose metabolism rate: → : no change; →↓ : decreased in a low degree; ↓ : decreased in a moderate degree; ↓↓ : decreased in a high degree; conditions: for Local glucose metabolism rate: average ± standard error
Description: [Method for measuring cerebral glucose metabolism] Cannulas for injection of kainic acid were inserted in an assigned position of the left side of the amygdala of 18 Wistar male rats and fixed through the same procedure as described in Example I-1. Seven days after operation, polyethylene catheters were set and fixed to the femoral artery and vein of one side under halothane anesthesion, and the lower half of the body of each rat were put in plaster so as to prevent removal of the catheter. Upon awakening from narcotism, the same kainic acid solution as described in I-1 (1 μL) was injected through the cannula so as to induce seizures. After elapse of 90 minutes from injection of kainic acid, when limbic system seizures were in status epilepticus, 50, 100, or 200 mg/kg of nefiracetam was intravenously injected, whereas saline was injected into rats of the control group. After 60 minutes, 25 μCi of [^14C] deoxyglucose was intravenously injected. After the tracer was injected, blood was continuously collected from the artery for 45 minutes. When collection was finished, heads were cut off. Brains were extirpated immediately and instantly frozen in by hexane (−25° C.) cooled by dry ice. The frozen brain was sliced in a cryostat (−20° C.) so as to produce coronary, serial-frozen sections having a thickness of 20 μm. Subsequently, the sections were dried and put on high-speed X-ray film with a [^14C] standard, followed by seven-day-exposure in a cassette to thereby obtain an autoradiogram. The blood samples collected from the artery were centrifuged so as to collect plasma, the [^14C] radioactivity was measured by use of a liquid scintillation counter, and glucose concentration in plasma was measured.
The optical density of the intracerebral structure of each section was measured from the autoradiogram by use of a densitometer, and a glucose utilization rate of each intracerabral structure was calculated by use of the formula of Sokoloff (Sokoloff, L., Reivich, M., Kennedy, C., et al., J. Neurochemistry, 28: 897-916, 1977) based on [^14C] radioactivity and glucose concentration in plasma. The obtained data were compared quantitatively and statistically with those of the control group, through the Mann-Whitney U-test.

[2] = Amygdala, focal side, 100 mg/kg i.v.
[3] = Amygdala, non-focal side, 100 mg/kg i.v.
[4] = Brain stem reticular formation, focal side, 100 mg/kg i.v.
[5] = Brain stem reticular formation, non-focal side, 100 mg/kg i.v.
[6] = Candatum-putamen, focal side, 100 mg/kg i.v.
[7] = Candatum-putamen, non-focal side, 100 mg/kg i.v.
[8] = Cerebellar cortex, focal side, 100 mg/kg i.v.
[9] = Cerebellar cortex, non-focal side, 100 mg/kg i.v.
[10] = Corpus callosum, focal side, 100 mg/kg i.v.
[11] = Corpus callosum, non-focal side, 100 mg/kg i.v.
[12] = Frontal lobe cortex, focal side, 100 mg/kg i.v.
[13] = Frontal lobe cortex, non-focal side, 100 mg/kg i.v.
[14] = Hypothalamaus, focal side, 100 mg/kg i.v.
[15] = Hypothalamaus, non-focal side, 100 mg/kg i.v.
[16] = Occipital lobe cortex, focal side, 100 mg/kg i.v.
[17] = Occipital lobe cortex, non-focal side, 100 mg/kg i.v.
[18] = Parietal lobe cortex, focal side, 100 mg/kg i.v.
[19] = Parietal lobe cortex, non-focal side, 100 mg/kg i.v.
[20] = Sensorimotor area cortex, focal side, 100 mg/kg i.v.
[21] = Sensorimotor area cortex, non-focal side, 100 mg/kg i.v.
[22] = Septal area, focal side, 100 mg/kg i.v.
[23] = Septal area, non-focal side, 100 mg/kg i.v.
[24] = Substantia nigra, focal side, 100 mg/kg i.v.
[25] = Substantia nigra, non-focal side, 100 mg/kg i.v.
[26] = Temporal lobe cortex, focal side, 100 mg/kg i.v.
[27] = Temporal lobe cortex, non-focal side, 100 mg/kg i.v.
[28] = Thalamus, focal side, 100 mg/kg i.v.
[29] = Thalamus, non-focal side, 100 mg/kg i.v.
[30] = hippocampus, focal side, 100 mg/kg i.v.
[31] = hippocampus, non-focal side, 100 mg/kg i.v.

## Cc1cccc(C)c1NC(=O)CN1CCCC1=O [nefiracetam, N-(2,6-dimethylphenyl)-2-(2-oxo-1-pyrrolidinyl)acetamide]
Male mouse
  acute toxicity: 2,005 mg/kg
[1]; 200 mg/kg i.v.
  Regions with promoted glucose metabolism: the amygdala on the focal side is the only region where the metabolism is prompted
[1]; Amygdala, focal side, 50 mg/kg i.v.
  Effect on local cerebral glucose metabolism rate: →
[1]; [2]
  Effect on local cerebral glucose metabolism rate: →
  Local glucose metabolism rate: 201 ± 4.5 µmol/100 g/min
[1]; Amygdala, focal side, 200 mg/kg i.v.
  Effect on local cerebral glucose metabolism rate: ↓
[1]; Amygdala, non-focal side, 50 mg/kg i.v.
  Effect on local cerebral glucose metabolism rate: →
[1]; [3]
  Effect on local cerebral glucose metabolism rate: ↓↓
  Local glucose metabolism rate: 66.2 ± 3.8 µmol/100 g/min
[1]; Amygdala, non-focal side, 200 mg/kg i.v.
  Effect on local cerebral glucose metabolism rate: ↓↓
[1]; Brain stem reticular formation, focal side, 50 mg/kg i.v.
  Effect on local cerebral glucose metabolism rate: →
[1]; [4]
  Effect on local cerebral glucose metabolism rate: →↓
  Local glucose metabolism rate: 52.9 ± 3.5 µmol/100 g/min
[1]; Brain stem reticular formation, focal side, 200 mg/kg i.v.
  Effect on local cerebral glucose metabolism rate: ↓
[1]; Brain stem reticular formation, non-focal side, 50 mg/kg i.v.
  Effect on local cerebral glucose metabolism rate: →
[1]; [5]
  Effect on local cerebral glucose metabolism rate: ↓
  Local glucose metabolism rate: 49.6 ± 3.3 µmol/100 g/min
[1]; Brain stem reticular formation, non-focal side, 200 mg/kg i.v.
  Effect on local cerebral glucose metabolism rate: ↓
[1]; Candatum-putamen, focal side, 50 mg/kg i.v.
  Effect on local cerebral glucose metabolism rate: →
[1]; [6]
  Effect on local cerebral glucose metabolism rate: →
  Local glucose metabolism rate: 207 ± 16.5 µmol/100 g/min
[1]; Candatum-putamen, focal side, 200 mg/kg i.v.
  Effect on local cerebral glucose metabolism rate: ↓
[1]; Candatum-putamen, non-focal side, 50 mg/kg i.v.
  Effect on local cerebral glucose metabolism rate: →↓
[1]; [7]
  Effect on local cerebral glucose metabolism rate: ↓↓
  Local glucose metabolism rate: 73.1 ± 2.5 µmol/100 g/min
[1]; Candatum-putamen, non-focal side, 200 mg/kg i.v.
  Effect on local cerebral glucose metabolism rate: ↓↓
[1]; Cerebellar cortex, focal side, 50 mg/kg i.v.
  Effect on local cerebral glucose metabolism rate: →
[1]; [8]
  Effect on local cerebral glucose metabolism rate: →
  Local glucose metabolism rate: 47.2 ± 2.5 µmol/100 g/min
[1]; Cerebellar cortex, focal side, 200 mg/kg i.v.
  Effect on local cerebral glucose metabolism rate: →
[1]; Cerebellar cortex, non-focal side, 50 mg/kg i.v.
  Effect on local cerebral glucose metabolism rate: →
[1]; [9]
  Effect on local cerebral glucose metabolism rate: ↓
  Local glucose metabolism rate: 46.1 ± 2.1 µmol/100 g/min
[1]; Cerebellar cortex, non-focal side, 200 mg/kg i.v.
  Effect on local cerebral glucose metabolism rate: →
[1]; Corpus callosum, focal side, 50 mg/kg i.v.
  Effect on local cerebral glucose metabolism rate: →
[1]; [10]
  Effect on local cerebral glucose metabolism rate: →
  Local glucose metabolism rate: 21.9 ± 1.1 µmol/100 g/min
[1]; Corpus callosum, focal side, 200 mg/kg i.v.
  Effect on local cerebral glucose metabolism rate: →
[1]; Corpus callosum, non-focal side, 50 mg/kg i.v.
  Effect on local cerebral glucose metabolism rate: →
[1]; [11]
  Effect on local cerebral glucose metabolism rate: →
  Local glucose metabolism rate: 21.1 ± 1.1 µmol/100 g/min
[1]; Corpus callosum, non-focal side, 200 mg/kg i.v.
  Effect on local cerebral glucose metabolism rate: →
[1]; Frontal lobe cortex, focal side, 50 mg/kg i.v.
  Effect on local cerebral glucose metabolism rate: →
[1]; [12]
  Effect on local cerebral glucose metabolism rate: ↓
  Local glucose metabolism rate: 81.8 ± 5.7 µmol/100 g/min
[1]; Frontal lobe cortex, focal side, 200 mg/kg i.v.
  Effect on local cerebral glucose metabolism rate: ↓
[1]; Frontal lobe cortex, non-focal side, 50 mg/kg i.v.
  Effect on local cerebral glucose metabolism rate: →
[1]; [13]
  Effect on local cerebral glucose metabolism rate: ↓
  Local glucose metabolism rate: 65.7 ± 3.6 µmol/100 g/min
[1]; Frontal lobe cortex, non-focal side, 200 mg/kg i.v.
  Effect on local cerebral glucose metabolism rate: ↓
[1]; Hypothalamaus, focal side, 50 mg/kg i.v.
  Effect on local cerebral glucose metabolism rate: →
[1]; [14]
  Effect on local cerebral glucose metabolism rate: ↓
  Local glucose metabolism rate: 70.6 ± 4.7 µmol/100 g/min
[1]; Hypothalamaus, focal side, 200 mg/kg i.v.
  Effect on local cerebral glucose metabolism rate: ↓
[1]; Hypothalamaus, non-focal side, 50 mg/kg i.v.
  Effect on local cerebral glucose metabolism rate: →
[1]; [15]
  Effect on local cerebral glucose metabolism rate: →↓
  Local glucose metabolism rate: 58.5 ± 4.5 µmol/100 g/min
[1]; Hypothalamaus, non-focal side, 200 mg/kg i.v.
  Effect on local cerebral glucose metabolism rate: ↓
[1]; Occipital lobe cortex, focal side, 50 mg/kg i.v.
  Effect on local cerebral glucose metabolism rate: →
[1]; [16]
  Effect on local cerebral glucose metabolism rate: →↓
  Local glucose metabolism rate: 139 ± 5.6 µmol/100 g/min
[1]; Occipital lobe cortex, focal side, 200 mg/kg i.v.
  Effect on local cerebral glucose metabolism rate: ↓
[1]; Occipital lobe cortex, non-focal side, 50 mg/kg i.v.
  Effect on local cerebral glucose metabolism rate: →
[1]; [17]
  Effect on local cerebral glucose metabolism rate: →↓
  Local glucose metabolism rate: 78.6 ± 5.8 µmol/100 g/min
[1]; Occipital lobe cortex, non-focal side, 200 mg/kg i.v.
  Effect on local cerebral glucose metabolism rate: ↓
[1]; Parietal lobe cortex, focal side, 50 mg/kg i.v.
  Effect on local cerebral glucose metabolism rate: →
[1]; [18]
  Effect on local cerebral glucose metabolism rate: →↓
  Local glucose metabolism rate: 109 ± 10.6 µmol/100 g/min
[1]; Parietal lobe cortex, focal side, 200 mg/kg i.v.
  Effect on local cerebral glucose metabolism rate: ↓
[1]; Parietal lobe cortex, non-focal side, 50 mg/kg i.v.
  Effect on local cerebral glucose metabolism rate: →
[1]; [19]
  Effect on local cerebral glucose metabolism rate: →↓
  Local glucose metabolism rate: 72.1 ± 4.9 µmol/100 g/min
[1]; Parietal lobe cortex, non-focal side, 200 mg/kg i.v.
  Effect on local cerebral glucose metabolism rate: ↓
[1]; Sensorimotor area cortex, focal side, 50 mg/kg i.v.
  Effect on local cerebral glucose metabolism rate: →
[1]; [20]
  Effect on local cerebral glucose metabolism rate: →
  Local glucose metabolism rate: 139 ± 9 µmol/100 g/min
[1]; Sensorimotor area cortex, focal side, 200 mg/kg i.v.
  Effect on local cerebral glucose metabolism rate: ↓
[1]; Sensorimotor area cortex, non-focal side, 50 mg/kg i.v.
  Effect on local cerebral glucose metabolism rate: →
[1]; [21]
  Effect on local cerebral glucose metabolism rate: ↓
  Local glucose metabolism rate: 73.4 ± 4.7 µmol/100 g/min
[1]; Sensorimotor area cortex, non-focal side, 200 mg/kg i.v.
  Effect on local cerebral glucose metabolism rate: ↓
[1]; Septal area, focal side, 50 mg/kg i.v.
  Effect on local cerebral glucose metabolism rate: →
[1]; [22]
  Effect on local cerebral glucose metabolism rate: ↓
  Local glucose metabolism rate: 117 ± 22.7 µmol/100 g/min
[1]; Septal area, focal side, 200 mg/kg i.v.
  Effect on local cerebral glucose metabolism rate: ↓↓
[1]; Septal area, non-focal side, 50 mg/kg i.v.
  Effect on local cerebral glucose metabolism rate: →
[1]; [23]
  Effect on local cerebral glucose metabolism rate: ↓↓
  Local glucose metabolism rate: 56.9 ± 3.3 µmol/100 g/min
[1]; Septal area, non-focal side, 200 mg/kg i.v.
  Effect on local cerebral glucose metabolism rate: ↓↓
[1]; Substantia nigra, focal side, 50 mg/kg i.v.
  Effect on local cerebral glucose metabolism rate: →
[1]; [24]
  Effect on local cerebral glucose metabolism rate: ↓
  Local glucose metabolism rate: 77.6 ± 6.8 µmol/100 g/min
[1]; Substantia nigra, focal side, 200 mg/kg i.v.
  Effect on local cerebral glucose metabolism rate: ↓
[1]; Substantia nigra, non-focal side, 50 mg/kg i.v.
  Effect on local cerebral glucose metabolism rate: →
[1]; [25]
  Effect on local cerebral glucose metabolism rate: ↓
  Local glucose metabolism rate: 45.9 ± 2.7 µmol/100 g/min
[1]; Substantia nigra, non-focal side, 200 mg/kg i.v.
  Effect on local cerebral glucose metabolism rate: ↓
[1]; Temporal lobe cortex, focal side, 50 mg/kg i.v.
  Effect on local cerebral glucose metabolism rate: →
[1]; [26]
  Effect on local cerebral glucose metabolism rate: →↓
  Local glucose metabolism rate: 103 ± 6.2 µmol/100 g/min
[1]; Temporal lobe cortex, focal side, 200 mg/kg i.v.
  Effect on local cerebral glucose metabolism rate: ↓
[1]; Temporal lobe cortex, non-focal side, 50 mg/kg i.v.
  Effect on local cerebral glucose metabolism rate: →
[1]; [27]
  Effect on local cerebral glucose metabolism rate: ↓
  Local glucose metabolism rate: 67.8 ± 3.5 µmol/100 g/min
[1]; Temporal lobe cortex, non-focal side, 200 mg/kg i.v.
  Effect on local cerebral glucose metabolism rate: ↓
[1]; Thalamus, focal side, 50 mg/kg i.v.
  Effect on local cerebral glucose metabolism rate: →
[1]; [28]
  Effect on local cerebral glucose metabolism rate: ↓
  Local glucose metabolism rate: 90.5 ± 3.8 µmol/100 g/min
[1]; Thalamus, focal side, 200 mg/kg i.v.
  Effect on local cerebral glucose metabolism rate: ↓↓
[1]; Thalamus, non-focal side, 50 mg/kg i.v.
  Effect on local cerebral glucose metabolism rate: ↓
[1]; [29]
  Effect on local cerebral glucose metabolism rate: ↓↓
  Local glucose metabolism rate: 72.3 ± 2.8 µmol/100 g/min
[1]; Thalamus, non-focal side, 200 mg/kg i.v.
  Effect on local cerebral glucose metabolism rate: ↓↓
[1]; hippocampus, focal side, 50 mg/kg i.v.
  Effect on local cerebral glucose metabolism rate: →↓
[1]; [30]
  Effect on local cerebral glucose metabolism rate: ↓
  Local glucose metabolism rate: 184 ± 7.1 µmol/100 g/min
[1]; hippocampus, focal side, 200 mg/kg i.v.
  Effect on local cerebral glucose metabolism rate: ↓↓
[1]; hippocampus, non-focal side, 50 mg/kg i.v.
  Effect on local cerebral glucose metabolism rate: ↓
[1]; [31]
  Effect on local cerebral glucose metabolism rate: ↓↓
  Local glucose metabolism rate: 87.2 ± 8.9 µmol/100 g/min
[1]; hippocampus, non-focal side, 200 mg/kg i.v.
  Effect on local cerebral glucose metabolism rate: ↓↓
